From ChEMBL document CHEMBL1156703, “Antitumor studies -- part 2: structure-activity relationship study for flavin analogs including investigations on their in vitro antitumor assay and docking simulation into protein tyrosine kinase” (Eur J Med Chem, 2008)
≈ marks a conversion by molar mass, not a printed value.

Columns and labels:
[1] = molecular target: Protein kinase C (PKC); assay: Inhibition of rat brain protein kinase C
[2] = system: KB; assay: Growth inhibition of human KB cells by MTT assay; type: functional, cell-based

Structure (SMILES)	IC50 [1] [µg/mL]	IC50 [2] [µg/mL]
C[C@H]1CNCCN1S(=O)(=O)c1cccc2cnccc12	38.4 (≈ 132 µM)	–
CCn1c2nc(-c3ccccc3)nc(=O)c-2cc2ccccc21	12.9 (≈ 42.8 µM)	–
Cc1ccc2c(c1)cc1c(=O)nc(-c3ccccc3)nc-1n2C	4.55 (≈ 15.1 µM)	1.17 (≈ 3.88 µM)
Cn1c2nc(N)nc(=O)c-2cc2ccccc21	14.8 (≈ 65.4 µM)	–
Cn1c2nc(-c3ccccc3)nc(=O)c-2cc2ccccc21	3.54 (≈ 12.3 µM)	–
CCCCCCCCCCCCn1c2nc(=O)[nH]c(=O)c-2cc2ccc(Cl)cc21	> 100	> 10
O=c1nc2n(-c3ccccc3)c3ccccc3cc-2c(=O)[nH]1	> 100	> 10
Cn1c(=O)nc2n(-c3ccccc3)c3ccccc3cc-2c1=O	> 100	> 10
Cn1c2nc(=O)n(-c3ccccc3)c(=O)c-2cc2ccccc21	60.1 (≈ 198 µM)	> 10
O=c1nc2n(-c3ccccc3)c3ccccc3cc-2c(=O)n1-c1ccccc1	> 100	> 10
CCCCn1c2nc(-c3ccccc3)nc(=O)c-2cc2ccccc21	–	2.53 (≈ 7.68 µM)
CCn1c2nc(=O)n(C)c(=O)c-2cc2ccccc21	46.6 (≈ 183 µM)	> 10
Cc1ccc2c(c1)cc1c(=O)n(C)c(=O)nc-1n2-c1ccccc1	26.4 (≈ 83.2 µM)	> 10
CCCCn1c2nc(=O)[nH]c(=O)c-2cc2ccccc21	89.7 (≈ 333 µM)	> 10
CCCn1c2nc(=O)n(C)c(=O)c-2cc2ccccc21	46 (≈ 171 µM)	> 10
CCn1c2nc(=O)n(-c3ccccc3)c(=O)c-2cc2ccccc21	53.3 (≈ 168 µM)	> 10
CCn1c2nc(=O)[nH]c(=O)c-2cc2cc(C)ccc21	10 (≈ 39.2 µM)	> 10
CCCCn1c2nc(=O)n(C)c(=O)c-2cc2ccccc21	23.9 (≈ 84.4 µM)	> 10
Nc1ccn([C@@H]2O[C@H](CO)[C@@H](O)[C@@H]2O)c(=O)n1 [CYTARABINE]	–	0.14 (≈ 0.576 µM)
